Results reported in patent US20020137929A1, “1 - (3-heterocyclylphenyl) isothiourea, -isourea, -guanidine and -amidine herbicidal agents” (Intellectual Property Department, BASF Aktiengesellschaft, priority 1998, published 2002).

Key:
AMBEL (Ragweed, Common) [1] = assay: Preemergence herbicidal evaluation; type: in vivo, Ambrosia artemisifolia; settings: rated 4-5 weeks after treatment
Method in brief: (§1)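 Herbicidal effect scored visually, 0-9, at 4 to 5 weeks against a control; compound applied preemergence by aqueous acetone spray to seeded soil at about 0.0156 to 0.500 kg/ha.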

[2] = test system: IPOHE (Morningglory, Ivyleaf); assay: Postemergence herbicidal evaluation; type: in vivo, Ipomoea hederacea; settings: postemergence
Method in brief: (§2)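 Each compound, dispersed in an acetone/water mix (50/50) carrying 0.5% TWEEN 20, is nozzle-sprayed at 40 psi on approximately two-week-old seedlings at about 0.0156–0.500 kg/ha. Plants are assessed 4–5 weeks afterward on a 0–9 scale relative to control; duplicate tests are averaged.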

CASOB (Sicklepod) [3] = assay: Postemergence herbicidal evaluation; type: in vivo, Cassia obtusifolia; settings: postemergence
Method in brief: as §2

[4] = test system: CHEAL (Lambsquarters, Common); assay: Postemergence herbicidal evaluation; type: in vivo, Chenopodium album; settings: postemergence
Method in brief: as §2

[5] = test system: GLXMAW (Soybean, Williams); assay: Postemergence herbicidal evaluation; type: in vivo, Glycine max, (L.) Merr. cv Williams; settings: postemergence
Method in brief: as §2

[6] = test system: GLXMAW (Soybean, Williams); assay: Preemergence herbicidal evaluation; type: in vivo, Glycine max, (L.) Merr. cv Williams; settings: rated 4-5 weeks after treatment
Method in brief: as §1

[7] = test system: TRZAWR (Wheat, Winter, cv Riband); assay: Postemergence herbicidal evaluation; type: in vivo, Triticum aestivum; settings: postemergence
Method in brief: as §2

CASOB (Sicklepod) [8] = assay: Preemergence herbicidal evaluation; type: in vivo, Cassia obtusifolia; settings: rated 4-5 weeks after treatment
Method in brief: as §1

ORYSAT (Rice, Tebonnet) = assay: Preemergence herbicidal evaluation; type: in vivo, Oryza sativa, (L.) Tebonnet; settings: rated 4-5 weeks after treatment
Method in brief: as §1

[9] = test system: IPOHE (Morningglory, Ivyleaf); assay: Preemergence herbicidal evaluation; type: in vivo, Ipomoea hederacea; settings: rated 4-5 weeks after treatment
Method in brief: as §1

AMBEL (Ragweed, Common) [10] = assay: Postemergence herbicidal evaluation; type: in vivo, Ambrosia artemisifolia; settings: postemergence
Method in brief: as §2

ABUTH (Velvetleaf) = assay: Preemergence herbicidal evaluation; type: in vivo, Abutilon theophrasti; settings: rated 4-5 weeks after treatment
Method in brief: as §1

[11] = test system: SAGPY (Arrowhead (Pygmaea)); assay: Preemergence weed control under flooded paddy conditions; type: in vivo, Sagittaria pygmaea; settings: rated 3-4 weeks after treatment
Method in brief: (§3)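 Flooded-pot preemergence screen with silt loam and seeds in the upper 0.5 cm. Dose about 0.0313 to 0.500 kg/ha, delivered into flood water; visual 0-9 score after 3 to 4 weeks.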

[12] = test system: CHEAL (Lambsquarters, Common); assay: Preemergence herbicidal evaluation; type: in vivo, Chenopodium album; settings: rated 4-5 weeks after treatment
Method in brief: as §1

MOOVA (Monochoria) = assay: Preemergence weed control under flooded paddy conditions; type: in vivo, Monochoria vaginalis; settings: rated 3-4 weeks after treatment
Method in brief: as §3

ECHCG (Barnyardgrass) = assay: Postemergence herbicidal evaluation; type: in vivo, Echinochloa crus-galli; settings: postemergence
Method in brief: as §2

CC1SC(=Nc2cc(-n3c(=O)cc(C(F)(F)F)n(C)c3=O)c(F)cc2Cl)N(C)C1=O (centres unmarked) [Compound 9]
AMBEL preemergence herbicidal rating (AMBEL (Ragweed, Common) [1]; rate 0.0156 kg/ha): 3.0 | AMBEL preemergence herbicidal rating (AMBEL (Ragweed, Common) [1]; rate 0.0313 kg/ha): 6.3 | AMBEL preemergence herbicidal rating (AMBEL (Ragweed, Common) [1]; rate 0.0625 kg/ha): 7.3 | AMBEL preemergence herbicidal rating (AMBEL (Ragweed, Common) [1]; rate 0.1250 kg/ha): 9.0 | AMBEL preemergence herbicidal rating (AMBEL (Ragweed, Common) [1]; rate 0.2500 kg/ha): 9.0 | IPOHE herbicidal rating ([2]; rate 0.0156 kg/ha): 4.0 | IPOHE herbicidal rating ([2]; rate 0.0313 kg/ha): 7.0 | IPOHE herbicidal rating ([2]; rate 0.0625 kg/ha): 9.0 | IPOHE herbicidal rating ([2]; rate 0.1250 kg/ha): 9.0 | CASOB herbicidal rating (CASOB (Sicklepod) [3]; rate 0.0156 kg/ha): 0.0 | CASOB herbicidal rating (CASOB (Sicklepod) [3]; rate 0.0313 kg/ha): 1.0 | CASOB herbicidal rating (CASOB (Sicklepod) [3]; rate 0.0625 kg/ha): 2.0 | CASOB herbicidal rating (CASOB (Sicklepod) [3]; rate 0.1250 kg/ha): 4.5 | CHEAL herbicidal rating ([4]; rate 0.0156 kg/ha): 6.5 | CHEAL herbicidal rating ([4]; rate 0.0313 kg/ha): 6.0 | CHEAL herbicidal rating ([4]; rate 0.0625 kg/ha): 9.0 | CHEAL herbicidal rating ([4]; rate 0.1250 kg/ha): 9.0 | GLXMAW herbicidal rating ([5]; rate 0.0156 kg/ha): 4.5 | GLXMAW herbicidal rating ([5]; rate 0.0313 kg/ha): 5.8 | GLXMAW herbicidal rating ([5]; rate 0.0625 kg/ha): 6.8 | GLXMAW herbicidal rating ([5]; rate 0.1250 kg/ha): 7.3 | GLXMAW preemergence herbicidal rating ([6]; rate 0.0156 kg/ha): 4.0 | GLXMAW preemergence herbicidal rating ([6]; rate 0.0313 kg/ha): 6.0 | GLXMAW preemergence herbicidal rating ([6]; rate 0.0625 kg/ha): 6.3 | GLXMAW preemergence herbicidal rating ([6]; rate 0.1250 kg/ha): 8.7 | GLXMAW preemergence herbicidal rating ([6]; rate 0.2500 kg/ha): 9.0 | TRZAWR herbicidal rating ([7]; rate 0.0156 kg/ha): 3.3 | TRZAWR herbicidal rating ([7]; rate 0.0313 kg/ha): 3.5 | TRZAWR herbicidal rating ([7]; rate 0.0625 kg/ha): 4.3 | TRZAWR herbicidal rating ([7]; rate 0.1250 kg/ha): 5.0 | CASOB preemergence herbicidal rating (CASOB (Sicklepod) [8]; rate 0.0156 kg/ha): 1.0 | CASOB preemergence herbicidal rating (CASOB (Sicklepod) [8]; rate 0.0313 kg/ha): 1.0 | CASOB preemergence herbicidal rating (CASOB (Sicklepod) [8]; rate 0.0625 kg/ha): 3.0 | CASOB preemergence herbicidal rating (CASOB (Sicklepod) [8]; rate 0.1250 kg/ha): 5.3 | CASOB preemergence herbicidal rating (CASOB (Sicklepod) [8]; rate 0.2500 kg/ha): 8.0 | ORYSAT preemergence herbicidal rating (ORYSAT (Rice, Tebonnet); rate 0.0156 kg/ha): 5.5 | ORYSAT preemergence herbicidal rating (ORYSAT (Rice, Tebonnet); rate 0.0313 kg/ha): 8.5 | ORYSAT preemergence herbicidal rating (ORYSAT (Rice, Tebonnet); rate 0.0625 kg/ha): 7.5 | ORYSAT preemergence herbicidal rating (ORYSAT (Rice, Tebonnet); rate 0.1250 kg/ha): 9.0 | ORYSAT preemergence herbicidal rating (ORYSAT (Rice, Tebonnet); rate 0.2500 kg/ha): 9.0 | IPOHE preemergence herbicidal rating ([9]; rate 0.0156 kg/ha): 5.0 | IPOHE preemergence herbicidal rating ([9]; rate 0.0313 kg/ha): 7.7 | IPOHE preemergence herbicidal rating ([9]; rate 0.0625 kg/ha): 7.0 | IPOHE preemergence herbicidal rating ([9]; rate 0.1250 kg/ha): 9.0 | IPOHE preemergence herbicidal rating ([9]; rate 0.2500 kg/ha): 9.0 | AMBEL herbicidal rating (AMBEL (Ragweed, Common) [10]; rate 0.0156 kg/ha): 2.0 | AMBEL herbicidal rating (AMBEL (Ragweed, Common) [10]; rate 0.0313 kg/ha): 3.5 | AMBEL herbicidal rating (AMBEL (Ragweed, Common) [10]; rate 0.0625 kg/ha): 7.5 | AMBEL herbicidal rating (AMBEL (Ragweed, Common) [10]; rate 0.1250 kg/ha): 7.0 | ABUTH preemergence herbicidal rating (ABUTH (Velvetleaf); rate 0.0156 kg/ha): 9.0 | ABUTH preemergence herbicidal rating (ABUTH (Velvetleaf); rate 0.0313 kg/ha): 9.0 | ABUTH preemergence herbicidal rating (ABUTH (Velvetleaf); rate 0.0625 kg/ha): 9.0 | ABUTH preemergence herbicidal rating (ABUTH (Velvetleaf); rate 0.1250 kg/ha): 9.0 | ABUTH preemergence herbicidal rating (ABUTH (Velvetleaf); rate 0.2500 kg/ha): 9.0 | Herbicidal rating SAGPY ([11]; 0.0313 kg/ha): 0.0 | Herbicidal rating SAGPY ([11]; 0.0625 kg/ha): 0.0 | Herbicidal rating SAGPY ([11]; 0.1250 kg/ha): 1.0 | Herbicidal rating SAGPY ([11]; 0.2500 kg/ha): 2.0 | CHEAL preemergence herbicidal rating ([12]; rate 0.0156 kg/ha): 9.0 | CHEAL preemergence herbicidal rating ([12]; rate 0.0313 kg/ha): 9.0 | CHEAL preemergence herbicidal rating ([12]; rate 0.0625 kg/ha): 9.0 | CHEAL preemergence herbicidal rating ([12]; rate 0.1250 kg/ha): 9.0 | CHEAL preemergence herbicidal rating ([12]; rate 0.2500 kg/ha): 9.0 | Herbicidal rating MOOVA (MOOVA (Monochoria); 0.0313 kg/ha): 9.0 | Herbicidal rating MOOVA (MOOVA (Monochoria); 0.0625 kg/ha): 9.0 | Herbicidal rating MOOVA (MOOVA (Monochoria); 0.1250 kg/ha): 9.0 | Herbicidal rating MOOVA (MOOVA (Monochoria); 0.2500 kg/ha): 9.0 | ECHCG herbicidal rating (ECHCG (Barnyardgrass); rate 0.0156 kg/ha): 0.0 | ECHCG herbicidal rating (ECHCG (Barnyardgrass); rate 0.0313 kg/ha): 0.0 | ECHCG herbicidal rating (ECHCG (Barnyardgrass); rate 0.0625 kg/ha): 2.0 | ECHCG herbicidal rating (ECHCG (Barnyardgrass); rate 0.1250 kg/ha): 4.5
